# Measurements from ChEMBL document CHEMBL1146968, “Novel skeleton terpenes from Celastrus hypoleucus with anti-tumor activities” (Bioorg Med Chem Lett, 2006).
# How the values were obtained:
# Type in all cases: functional, cell-based
# RKO = assay: Antitumor activity against human RKO cell line by MTT assay
# SMMC-7721 = assay: Antitumor activity against human SMMC7721 cell line by MTT assay
# K562 = assay: Antitumor activity against human K562 cell line by MTT assay
# Bcap37 = assay: Antitumor activity against human Bcap37 cell line by MTT assay
Compound,IC50 (RKO) [µg/mL],IC50 (SMMC-7721) [µg/mL],IC50 (K562) [µg/mL],IC50 (Bcap37) [µg/mL]
CO[C@@]12[C@H](COC(N)=O)C3=C(C(=O)C(C)=C(N)C3=O)N1C[C@@H]1N[C@@H]12 [MITOMYCIN],1.75,2.44,3.35,2.33
CC1(C)CC[C@]2(C)CC[C@]3(C)C(=CC[C@@H]4[C@@]5(C)CC[C@H](O)C(C)(C)[C@@H]5[C@@H](O)C[C@]43C)C2C1 (some centres not stated),12.2,22.7,11.2,14.6
CC1=C(C)[C@@H]2CC(=O)c3cc(O)c(O)cc3[C@@]2(C)CC1 [CELAHYPODIOL],27.2,38,16.2,24.4
